Where “and” joins values, the source holds several entries; their conditions need not be identical. Equal entries are not always repeated. Calls of active or inactive are those of the source. Peptide text beside a SMILES is read from it. * marks the point of attachment. Cbz = O=C(OCc1ccccc1)*; CH2Cl = ClC*
Assays:
[1] = biological target: T1, ATP-dependent translocase ABCB1 (Homo sapiens, UniProt P08183); experiment: ABCB1 efflux inhibitor potency, dose response, Jurkat-DNR cells, JC-1, flow cytometry, set 2 (AID 504569); format: functional; conditions: read-out: EC50_MICROM_;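 further: potency of pump inhibitors that raise cellular JC-1 green fluorescence up to the nicardipine level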
T1 sequence (P08183 whole entry): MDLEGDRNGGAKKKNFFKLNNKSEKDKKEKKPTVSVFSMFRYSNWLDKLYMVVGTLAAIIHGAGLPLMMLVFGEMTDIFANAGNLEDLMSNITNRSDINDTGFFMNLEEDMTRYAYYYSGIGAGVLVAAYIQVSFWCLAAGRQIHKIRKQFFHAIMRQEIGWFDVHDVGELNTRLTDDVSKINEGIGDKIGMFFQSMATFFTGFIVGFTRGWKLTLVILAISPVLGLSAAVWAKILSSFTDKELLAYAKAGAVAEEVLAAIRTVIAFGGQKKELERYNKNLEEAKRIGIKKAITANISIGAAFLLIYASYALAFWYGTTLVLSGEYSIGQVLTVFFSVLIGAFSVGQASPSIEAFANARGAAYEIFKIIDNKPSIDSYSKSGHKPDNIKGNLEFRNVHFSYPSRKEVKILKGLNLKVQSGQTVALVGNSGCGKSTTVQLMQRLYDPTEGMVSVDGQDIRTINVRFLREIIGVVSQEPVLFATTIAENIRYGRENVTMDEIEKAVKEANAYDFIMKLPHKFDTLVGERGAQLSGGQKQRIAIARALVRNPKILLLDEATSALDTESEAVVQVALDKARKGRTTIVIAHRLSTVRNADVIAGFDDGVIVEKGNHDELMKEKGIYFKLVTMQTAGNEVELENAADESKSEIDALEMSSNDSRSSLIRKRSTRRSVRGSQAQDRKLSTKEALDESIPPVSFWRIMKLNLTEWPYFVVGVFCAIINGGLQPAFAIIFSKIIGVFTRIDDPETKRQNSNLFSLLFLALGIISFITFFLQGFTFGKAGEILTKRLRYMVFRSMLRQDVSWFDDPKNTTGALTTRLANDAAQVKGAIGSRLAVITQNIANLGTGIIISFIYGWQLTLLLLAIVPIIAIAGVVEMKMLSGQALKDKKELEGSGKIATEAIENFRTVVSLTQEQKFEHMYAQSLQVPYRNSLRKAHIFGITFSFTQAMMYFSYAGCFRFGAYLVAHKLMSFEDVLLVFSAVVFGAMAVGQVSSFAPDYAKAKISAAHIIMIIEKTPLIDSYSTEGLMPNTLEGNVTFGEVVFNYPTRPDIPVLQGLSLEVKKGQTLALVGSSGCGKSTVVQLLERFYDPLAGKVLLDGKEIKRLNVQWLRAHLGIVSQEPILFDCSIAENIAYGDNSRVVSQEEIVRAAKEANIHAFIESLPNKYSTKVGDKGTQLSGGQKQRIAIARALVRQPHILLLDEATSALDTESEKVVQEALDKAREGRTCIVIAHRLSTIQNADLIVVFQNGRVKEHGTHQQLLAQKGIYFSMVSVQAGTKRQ

[2] = biological target: T1, ATP-dependent translocase ABCB1; experiment: ABCG2 efflux pump inhibitor potency, dose response, Ig-MXP3 cells, JC-1, flow cytometry, set 2 (AID 504566); format: functional; conditions: read-out: EC50_MICROM_;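 further: flow cytometry median green fluorescence of retained JC-1 dye; potency of efflux pump inhibition measured as rising substrate retention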
Vero [3] = experiment: cells; format: functional, cell-based; conditions: Chlorocebus sabaeus
[4] = HEp-2 cell cytotoxicity, dose response, cytotoxicity control for RSV inhibitor project, HTS (AID 2410); format: functional; conditions: human respiratory syncytial virus
cells [5] = experiment: cells
[6] = insulin promoter down-regulators in MIN6 cells, imaging, high-content screening, mouse beta cells (AID 1628); format: functional
Fatty acid synthase [7] = biological target: T2, Fatty acid synthase (Homo sapiens, UniProt P49327); experiment: FAS thioesterase domain inhibitors, dose response, biochemical, endpoint fluorescence intensity, uHTS hits (AID 624327); format: functional;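 further: fluorescence from hydrolysis of an O-methyl fluorescein acyl ester substrate by the enzyme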
Fatty acid synthase [8] = biological target: T2, Fatty acid synthase; experiment: FAS thioesterase domain inhibitors, dose response, biochemical, kinetic fluorescence intensity (AID 624326); format: functional;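 further: rate of fluorescence rise from hydrolysis of a fluorogenic O-methyl fluorescein ester substrate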
[9] = cytotoxicity in MIN6 insulinoma cells, dose response, cytotoxicity control, cell-based, mouse insulinoma (AID 2122); format: functional;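 further: confirmatory high-throughput counterscreen run to flag cytotoxic compounds; mouse MIN-6 beta cells carrying an insulin promoter eGFP reporter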
[10] = biological target: DNA dC->dU-editing enzyme APOBEC-3G (Homo sapiens, UniProt Q9HC16); format: functional;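 further: Dose-response counterscreen measuring inhibition of APOBEC3G DNA deaminase activity, run while confirming APOBEC3A inhibitors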
Sequence of DNA dC->dU-editing enzyme APOBEC-3G (Q9HC16 whole entry): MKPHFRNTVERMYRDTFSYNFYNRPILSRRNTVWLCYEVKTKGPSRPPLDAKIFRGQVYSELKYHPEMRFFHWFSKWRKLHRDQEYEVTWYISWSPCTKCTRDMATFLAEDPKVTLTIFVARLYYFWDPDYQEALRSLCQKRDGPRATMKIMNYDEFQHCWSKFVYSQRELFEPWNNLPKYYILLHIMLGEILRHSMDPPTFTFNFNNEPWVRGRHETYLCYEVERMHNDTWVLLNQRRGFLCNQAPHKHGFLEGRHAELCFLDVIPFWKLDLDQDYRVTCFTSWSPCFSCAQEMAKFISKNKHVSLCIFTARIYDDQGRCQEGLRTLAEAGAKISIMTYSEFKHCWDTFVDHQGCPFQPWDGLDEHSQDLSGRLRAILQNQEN

[11] = biological target: DNA dC->dU-editing enzyme APOBEC-3A (Homo sapiens, UniProt P31941); experiment: Dose Response confirmation of small molecule APOBEC3A DNA Deaminase Inhibitors via a fluorescence-based single-stranded DNA deaminase assay. [Related pubchem assays (depositor defined):AID493011, AID493024]; format: functional
Sequence of DNA dC->dU-editing enzyme APOBEC-3A (P31941 whole entry): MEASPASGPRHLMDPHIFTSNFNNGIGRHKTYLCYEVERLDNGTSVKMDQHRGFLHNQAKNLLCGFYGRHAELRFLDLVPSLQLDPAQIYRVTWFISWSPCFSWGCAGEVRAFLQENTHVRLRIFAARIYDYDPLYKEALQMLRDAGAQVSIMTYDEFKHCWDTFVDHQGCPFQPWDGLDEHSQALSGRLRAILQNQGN

[12] = biological target: T3, Adenosylmethionine-8-amino-7-oxononanoate aminotransferase (Mycobacterium tuberculosis, UniProt P9WQ81); experiment: Mycobacterium tuberculosis BioA enzyme inhibitor Measured in Biochemical System Using Plate Reader - 2163-02_Inhibitor_Dose_CherryPick_Activity.; format: functional, Mycobacterium tuberculosis UT205
T3 sequence (P9WQ81 whole entry): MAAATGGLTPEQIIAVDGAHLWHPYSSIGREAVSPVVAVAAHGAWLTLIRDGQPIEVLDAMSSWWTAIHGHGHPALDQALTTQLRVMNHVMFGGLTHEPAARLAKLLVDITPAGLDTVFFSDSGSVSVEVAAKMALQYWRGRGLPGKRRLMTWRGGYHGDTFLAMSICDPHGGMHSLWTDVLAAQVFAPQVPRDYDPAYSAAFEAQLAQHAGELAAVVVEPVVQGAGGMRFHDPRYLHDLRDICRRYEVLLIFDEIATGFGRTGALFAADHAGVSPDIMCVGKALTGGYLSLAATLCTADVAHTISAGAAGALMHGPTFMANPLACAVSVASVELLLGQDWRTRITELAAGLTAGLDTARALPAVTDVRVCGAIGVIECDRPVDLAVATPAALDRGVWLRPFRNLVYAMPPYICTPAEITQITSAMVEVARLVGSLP

Vero [13] = experiment: cells; format: functional; conditions: Chlorocebus sabaeus
[14] = biological target: T4, Small ubiquitin-related modifier 1 (Homo sapiens, UniProt P63165); experiment: inhibitors of SUMO1 peptide binding, dose response, biochemical, fluorescence polarization, uHTS hits (AID 624382); format: functional; conditions: read-out: IC50_Mean
T4 sequence (P63165 whole entry): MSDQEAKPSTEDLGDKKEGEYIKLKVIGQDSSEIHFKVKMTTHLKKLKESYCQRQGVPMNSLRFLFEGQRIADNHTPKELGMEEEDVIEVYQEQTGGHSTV

Beta-lactamase [15] = biological target: Beta-lactamase (Pseudomonas aeruginosa, UniProt Q79MP6);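 further: biochemical dose-response test of metallo-beta-lactamase enzyme inhibition, read out by epi-absorbance; purified recombinant IMP-1 metallo-beta-lactamase with nitrocefin as substrate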
Sequence of Beta-lactamase (Pseudomonas aeruginosa, UniProt Q79MP6) (Q79MP6 whole entry): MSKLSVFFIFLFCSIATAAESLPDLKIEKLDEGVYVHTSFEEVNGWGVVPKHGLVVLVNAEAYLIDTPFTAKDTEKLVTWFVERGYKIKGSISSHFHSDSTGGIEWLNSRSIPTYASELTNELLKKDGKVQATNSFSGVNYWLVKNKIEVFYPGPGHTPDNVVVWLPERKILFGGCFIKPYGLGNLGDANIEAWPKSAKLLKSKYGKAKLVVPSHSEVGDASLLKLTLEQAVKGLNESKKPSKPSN

Beta-lactamase [16] = biological target: Beta-lactamase (Salmonella choleraesuis (strain SC-B67), UniProt Q5J463)
[17] = biological target: T5, Voltage-gated N-type calcium channel alpha-1B subunit/Amyloid beta A4 precursor protein-binding family A member 1 (Homo sapiens, UniProt Q00975+Q02410); format: protein assay
[18] = biological target: T5, Voltage-gated N-type calcium channel alpha-1B subunit/Amyloid beta A4 precursor protein-binding family A member 1; format: protein assay; remark: listed apart in the source
[19] = biological target: T4, Small ubiquitin-related modifier 1; experiment: inhibitors of SUMO1 partner interactions, dose response, biochemical, FRET (AID 624383); format: functional; conditions: read-out: IC50_Mean
[20] = biological target: G-protein coupled receptor 55 (Homo sapiens, UniProt Q9Y2T6); experiment: GPR55 antagonists blocking LPI-driven arrestin recruitment, primary screen, imaging, U2OS, beta-arrestin-GFP, LPI agonist (AID 2013); format: functional;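 further: antagonist potency measured as reduced agonist-driven arrestin aggregation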
[21] = biological target: 5-hydroxytryptamine receptor 2A (Mus musculus, UniProt P35363); format: functional, cell-based;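 further: CHO-K1 cells with tagged receptor and beta-arrestin; agonist potency measured as compound-induced activation of the receptor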
Sequence of 5-hydroxytryptamine receptor 2A (P35363 whole entry): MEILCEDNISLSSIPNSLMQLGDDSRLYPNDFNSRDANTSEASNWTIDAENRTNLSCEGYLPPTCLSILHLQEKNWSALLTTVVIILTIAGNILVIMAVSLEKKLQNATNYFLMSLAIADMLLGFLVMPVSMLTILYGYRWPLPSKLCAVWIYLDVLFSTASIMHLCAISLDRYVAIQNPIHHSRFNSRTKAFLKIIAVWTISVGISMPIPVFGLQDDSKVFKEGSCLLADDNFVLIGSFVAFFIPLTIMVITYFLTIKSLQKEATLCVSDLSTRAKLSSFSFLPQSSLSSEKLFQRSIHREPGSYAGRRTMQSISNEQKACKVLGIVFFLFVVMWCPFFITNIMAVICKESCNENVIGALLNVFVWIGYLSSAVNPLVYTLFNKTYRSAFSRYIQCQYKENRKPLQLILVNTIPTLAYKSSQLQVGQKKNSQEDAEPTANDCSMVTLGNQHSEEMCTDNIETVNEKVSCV

Mu-type opioid receptor = Mu-type opioid receptor (Homo sapiens, UniProt P35372); format: functional, cell-based;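 further: U2OS cells with beta-arrestin recruitment to OPRM1 by beta-gal complementation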
Sequence of Mu-type opioid receptor (P35372 whole entry): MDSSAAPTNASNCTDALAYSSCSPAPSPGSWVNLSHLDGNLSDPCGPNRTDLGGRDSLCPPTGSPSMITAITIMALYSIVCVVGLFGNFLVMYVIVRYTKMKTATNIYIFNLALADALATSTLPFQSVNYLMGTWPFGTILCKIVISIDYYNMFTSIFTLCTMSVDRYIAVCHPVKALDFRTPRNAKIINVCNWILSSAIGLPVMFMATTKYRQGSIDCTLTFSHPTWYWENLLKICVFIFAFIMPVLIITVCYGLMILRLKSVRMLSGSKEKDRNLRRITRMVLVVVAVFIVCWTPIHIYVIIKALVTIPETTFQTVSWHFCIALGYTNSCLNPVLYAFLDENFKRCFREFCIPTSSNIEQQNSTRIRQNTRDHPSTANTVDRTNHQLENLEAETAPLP

[22] = biological target: T6, Microphthalmia-associated transcription factor (Homo sapiens, UniProt O75030); experiment: TRPM1 promoter luciferase signal decrease, dose response, MITF inhibitor project, cell-based, SK-MEL-5, cherry-picked, set 3 (AID 493073); format: functional
T6 sequence (O75030 whole entry): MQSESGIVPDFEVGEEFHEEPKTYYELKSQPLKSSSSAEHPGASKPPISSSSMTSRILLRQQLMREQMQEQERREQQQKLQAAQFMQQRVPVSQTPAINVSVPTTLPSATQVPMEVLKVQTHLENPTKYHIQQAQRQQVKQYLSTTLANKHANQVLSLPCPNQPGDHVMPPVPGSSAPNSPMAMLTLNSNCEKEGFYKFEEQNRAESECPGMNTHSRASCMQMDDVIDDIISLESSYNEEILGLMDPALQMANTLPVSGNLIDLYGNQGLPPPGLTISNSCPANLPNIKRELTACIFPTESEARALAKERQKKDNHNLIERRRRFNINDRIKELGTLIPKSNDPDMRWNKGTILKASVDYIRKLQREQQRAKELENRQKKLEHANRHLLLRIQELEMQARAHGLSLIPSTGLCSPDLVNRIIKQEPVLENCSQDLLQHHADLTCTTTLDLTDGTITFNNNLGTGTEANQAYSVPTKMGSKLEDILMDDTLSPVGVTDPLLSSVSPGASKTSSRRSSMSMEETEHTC

cells [23] = format: functional, cell-based
cells [24] = format: functional, cell-based; remark: listed apart in the source
[25] = biological target: T7, Trace amine-associated receptor 1 (Homo sapiens, UniProt Q96RJ0); experiment: Fluorescence-based cell-based high throughput dose response assay to identify agonists of the human trace amine associated receptor 1 (TAAR1).; format: functional
T7 sequence (Q96RJ0 whole entry): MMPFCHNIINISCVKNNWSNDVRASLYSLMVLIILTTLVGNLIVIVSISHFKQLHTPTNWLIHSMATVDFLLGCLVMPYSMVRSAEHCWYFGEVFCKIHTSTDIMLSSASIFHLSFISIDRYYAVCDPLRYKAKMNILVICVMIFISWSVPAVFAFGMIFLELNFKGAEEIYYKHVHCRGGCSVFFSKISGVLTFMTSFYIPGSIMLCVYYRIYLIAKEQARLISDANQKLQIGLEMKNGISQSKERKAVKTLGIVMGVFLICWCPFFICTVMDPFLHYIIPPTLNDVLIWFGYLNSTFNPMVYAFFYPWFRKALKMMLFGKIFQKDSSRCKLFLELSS

[26] = biological target: T7, Trace amine-associated receptor 1; experiment: Counterscreen for agonists of the human trace amine associated receptor 1 (hTAAR1): Fluorescence-based cell-based high throughput dose response assay to identify hTAAR1 agonist that also desensitize TAAR1 receptor response.; format: functional
[27] = biological target: Ras and Rab interactor 1/Tyrosine-protein kinase ABL1 (Homo sapiens, UniProt P00519+Q13671); format: functional;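 further: biochemical TR-FRET dose-response test measuring inhibition of binding between Rin1 and Abl proteins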
Sequence of Ras and Rab interactor 1/Tyrosine-protein kinase ABL1 (P00519 whole entry): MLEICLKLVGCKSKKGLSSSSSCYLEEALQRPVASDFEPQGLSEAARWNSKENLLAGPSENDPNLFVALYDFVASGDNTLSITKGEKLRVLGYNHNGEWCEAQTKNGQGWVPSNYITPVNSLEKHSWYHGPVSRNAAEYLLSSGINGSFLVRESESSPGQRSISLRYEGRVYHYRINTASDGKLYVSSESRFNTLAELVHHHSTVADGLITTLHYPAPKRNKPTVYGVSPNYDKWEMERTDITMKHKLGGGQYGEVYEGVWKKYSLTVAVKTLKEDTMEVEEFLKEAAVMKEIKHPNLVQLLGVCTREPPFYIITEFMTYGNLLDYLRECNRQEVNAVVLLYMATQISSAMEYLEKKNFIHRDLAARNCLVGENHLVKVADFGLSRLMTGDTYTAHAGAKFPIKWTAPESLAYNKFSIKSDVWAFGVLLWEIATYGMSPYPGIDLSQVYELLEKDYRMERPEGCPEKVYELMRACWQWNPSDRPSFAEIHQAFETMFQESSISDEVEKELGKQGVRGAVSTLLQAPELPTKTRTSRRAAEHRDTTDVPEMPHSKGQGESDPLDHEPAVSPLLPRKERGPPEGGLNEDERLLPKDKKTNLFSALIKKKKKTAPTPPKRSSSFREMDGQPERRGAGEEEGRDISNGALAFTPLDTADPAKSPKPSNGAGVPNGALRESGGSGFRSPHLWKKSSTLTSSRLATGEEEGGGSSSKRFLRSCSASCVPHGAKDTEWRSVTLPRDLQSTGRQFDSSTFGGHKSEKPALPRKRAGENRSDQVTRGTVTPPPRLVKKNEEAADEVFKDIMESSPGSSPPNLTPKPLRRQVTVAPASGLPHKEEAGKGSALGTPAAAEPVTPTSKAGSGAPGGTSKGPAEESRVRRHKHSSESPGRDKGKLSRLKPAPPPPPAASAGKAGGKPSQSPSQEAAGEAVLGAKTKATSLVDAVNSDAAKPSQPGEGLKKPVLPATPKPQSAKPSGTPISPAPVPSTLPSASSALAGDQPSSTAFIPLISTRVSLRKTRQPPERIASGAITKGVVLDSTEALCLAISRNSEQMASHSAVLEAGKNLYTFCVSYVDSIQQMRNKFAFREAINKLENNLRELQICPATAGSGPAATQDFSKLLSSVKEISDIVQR
Sequence of Ras and Rab interactor 1/Tyrosine-protein kinase ABL1 (Q13671 whole entry): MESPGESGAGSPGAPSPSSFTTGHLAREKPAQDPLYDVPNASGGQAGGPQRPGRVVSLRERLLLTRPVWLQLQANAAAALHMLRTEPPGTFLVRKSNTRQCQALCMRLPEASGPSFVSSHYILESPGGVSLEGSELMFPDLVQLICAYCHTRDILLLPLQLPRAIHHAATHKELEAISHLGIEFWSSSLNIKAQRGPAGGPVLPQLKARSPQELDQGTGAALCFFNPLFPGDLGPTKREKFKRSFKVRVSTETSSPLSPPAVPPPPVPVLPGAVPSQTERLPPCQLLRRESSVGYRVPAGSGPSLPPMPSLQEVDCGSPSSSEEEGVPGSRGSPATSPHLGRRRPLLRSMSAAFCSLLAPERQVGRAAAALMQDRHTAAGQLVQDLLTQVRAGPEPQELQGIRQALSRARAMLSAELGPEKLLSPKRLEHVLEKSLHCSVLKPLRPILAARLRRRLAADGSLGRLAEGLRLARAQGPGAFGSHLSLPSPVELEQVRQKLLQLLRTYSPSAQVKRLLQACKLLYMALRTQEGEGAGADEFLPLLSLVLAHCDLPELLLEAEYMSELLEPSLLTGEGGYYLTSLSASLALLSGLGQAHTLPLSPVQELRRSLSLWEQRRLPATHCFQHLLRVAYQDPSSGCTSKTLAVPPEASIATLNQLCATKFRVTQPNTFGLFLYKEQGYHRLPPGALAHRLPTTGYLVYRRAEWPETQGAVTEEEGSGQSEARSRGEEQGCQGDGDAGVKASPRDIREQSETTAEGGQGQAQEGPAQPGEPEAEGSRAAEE

HEK293 [28] = experiment: cells; conditions: Homo sapiens
HEK293 [29] = experiment: cells; conditions: Homo sapiens; remark: listed apart in the source
[30] = biological target: T8, Ubiquitin-conjugating enzyme E2 N (Homo sapiens, UniProt P61088); format: functional;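 further: Dose-response confirmation in a TR-FRET assay detecting UBC13-driven polyubiquitin chain formation, inhibition measured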
T8 sequence (P61088 whole entry): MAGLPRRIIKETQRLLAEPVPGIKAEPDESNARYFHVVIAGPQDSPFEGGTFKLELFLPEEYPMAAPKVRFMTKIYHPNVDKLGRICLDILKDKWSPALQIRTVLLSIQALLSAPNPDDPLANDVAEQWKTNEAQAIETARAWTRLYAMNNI

O=C(c1ccccc1)N1CCN(c2cc(-c3ccccc3)nc3cc(-c4cccc(F)c4)nn23)CC1
EC50 [1]: 5.82 µM (active) | EC50 [2]: 2.41 µM (active)

O=C(O)c1cccnc1Nc1ccc(Cl)cc1
IC50 (Vero [3]): 17.3 µM (active) | CC50 [4]: 14.7 µM (active) | IC50 (cells [5]): 7.51 µM (active)

O=C(CNc1cc(S(=O)(=O)N2CCCC2)ccc1OCC(F)(F)F)Nc1ccc(SC(F)F)cc1
IC50 [6]: 2.54 µM (active) | IC50 (Fatty acid synthase [7]): 6.37 µM (active) | IC50 (Fatty acid synthase [8]): 2.98 µM (active) | IC50 [9]: 1.85 µM (active)

CCn1c(SCC(=O)NC2CCCCC2)nc2ccccc2c1=O
IC50 [10]: 4.97 µM (active) | IC50 [11]: 5.15 µM (active)

O=C(Nc1cccnc1)c1ccc(Oc2ccccc2)cc1
AC50 [12]: 0.751 µM (active)

CC(C)CC(NC(=O)OCc1ccccc1)C(=O)NC(Cc1ccccc1)C(=O)CCl (stereo not drawn) (Cbz-Leu-Phe-CH2Cl; configuration not given here)
IC50 (Vero [3]): 20.5 µM (active) | CC50 (Vero [13]): 21.5 µM (active)

CN1CCC(N(C)S(=O)(=O)c2ccc(NC(=O)COc3ccc(Br)cc3Cl)cc2)CC1
IC50 [10]: 14.2 µM (active) | IC50 [11]: 10.4 µM (active)

Cc1ccc(Cn2c(C(C)Nc3nc(-c4ccc(C)cc4)cs3)nc3cc(Cl)c(Cl)cc32)cc1 (centres undefined)
IC50 [14]: > 66.6 µM (inactive) | IC50 (Beta-lactamase [15]): > 59.6 µM (inactive) | IC50 (Beta-lactamase [16]): > 59.6 µM (inactive) | IC50 [17]: > 50 µM (inactive) | IC50 [18]: 4.57 µM (active) | IC50 [19]: 3.52 µM (active)

CCc1ccccc1N(CC)C(=O)CCc1nc(-c2ccc(C)cc2)no1
IC50 [20]: 1.06 µM (active)

CC(N)Cc1c[nH]c2ccc(Cl)cc12 (centres undefined)
EC50 [21]: 1.64 µM (active) | EC50 (Mu-type opioid receptor): 92.5 µM (inactive)

CC(C)(C)[S@+]([O-])N1Cc2cc(C(=O)NCc3ccccc3F)nc(-c3cccc(-c4cccnc4)c3)c2[C@@H]1CCO
AC50 [12]: 9.55 µM (active)

CCN1C(=NCCN2CCOCC2)N[C@@H](c2ccccc2)C(C(=O)OC)=C1C
IC50 [10]: 4.54 µM (active) | IC50 [11]: 4.2 µM (active)

Nc1c(N(CCC2=CCCCC2)C(=O)COc2ccc([N+](=O)[O-])cc2)c(=O)[nH]c(=O)n1Cc1ccccc1
AC50 [22]: 14.2 µM (active)

O=C(c1ccccc1)N1CCN(c2cc(-c3ccccc3)nc3cc(-c4cccc(Cl)c4)nn23)CC1
EC50 [1]: 2.26 µM (active) and 4 µM (active) | EC50 [2]: 1.05 µM (active) and 1.81 µM (active)

COc1cccc(Nc2nc(NCCO)c3ccccc3n2)c1
IC50 (cells [23]): > 29.9 µM (inactive) | EC50 (cells [24]): > 29.9 µM (inactive) | EC50 [25]: 4.4 µM (active) | IC50 [26]: 14 µM (inactive)

Cc1ccc(S(=O)(=O)N2CCN(C(=O)Cn3cnc4c3c(=O)n(C)c(=O)n4C)CC2)cc1C
IC50 [27]: 21.5 µM (inactive)

CN(c1ccc(OCC(=O)Nc2ccccc2C(=O)O)cc1)S(=O)(=O)c1ccc(Cl)cc1
IC50 (Vero [3]): 20.1 µM (active)

CCNC(=O)C[C@H]1CC[C@@H]2[C@@H](COc3ccc(NC(=O)Nc4cccc(F)c4)cc3C(=O)N2C)O1
AC50 [12]: 4.35 µM (active)

CN(C)C(=S)N=c1ssc(=S)n1Cc1cccnc1
EC50 (HEK293 [28]): > 59.6 µM (inactive) | EC50 (HEK293 [29]): > 59.6 µM (inactive)

Clc1ccc(CN2CCN(c3ccccc3)CC2)cn1
EC50 [21]: 5.22 µM (active) | EC50 (Mu-type opioid receptor): 92.5 µM (inactive)

O=C(c1ccncc1)N1CCN(c2cc(-c3ccccc3)nc3cc(-c4cccc(Cl)c4)nn23)CC1
EC50 [1]: 0.95 µM (active) | EC50 [2]: 1.19 µM (active)

CC1(C)CC(=O)C(/C=N\CCc2ccc(O)cc2)=C(O)C1
IC50 (cells [23]): > 29.9 µM (inactive) | EC50 (cells [24]): > 29.9 µM (inactive) | EC50 [25]: 1.84 µM (active) | IC50 [26]: 8.81 µM (active)

COc1cc(OC)c(-c2nn3c(C4CCCCC4)nnc3s2)cc1OC
EC50 (HEK293 [28]): > 59.6 µM (inactive) | EC50 (HEK293 [29]): > 59.6 µM (inactive) | CC50 [4]: 33.1 µM (active)

CCSc1ccccc1C(=O)n1nnc2ccccc21
AC50 [22]: 11.8 µM (active)

CCN1/C(=C\C(C)=O)Sc2ccc(OC)cc21
IC50 [10]: 2.89 µM (active) | IC50 [11]: 2.69 µM (active)

CCOc1ccc2nc(NC3=NC(C)=CC(C)(C)N3)nc(C)c2c1
IC50 [6]: 3.25 µM (active) | IC50 [30]: > 20 µM (inactive) | IC50 [9]: 6.46 µM (active)

COc1ccc(CN2CCN(C(=O)c3ccco3)CC2)c(OC)c1OC
EC50 [21]: 6.39 µM (active) | EC50 (Mu-type opioid receptor): 92.5 µM (inactive)

From ChEMBL document CHEMBL1201862, “PubChem BioAssay data set” (2004)
